Structures can show the parent of a compound that is named as a salt.

The test has as its target T1, phospholipase A₂ isolated from rat perotoneum (Rattus norvegicus, UniProt P14423).
T1 construct: Enzyme-containing exudate was aspirated through an abdominal incision; Separation of the enzyme from the exudate was accomplished by centrifugation; from tissue; host or cells: peritoneal exudate of casein-injected male Wistar rats
T1 sequence (P14423 22-146): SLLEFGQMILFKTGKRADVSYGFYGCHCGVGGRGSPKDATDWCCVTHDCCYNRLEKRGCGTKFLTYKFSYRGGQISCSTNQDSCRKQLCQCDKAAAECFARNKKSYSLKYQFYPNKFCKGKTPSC
The experiment in a line: phospholipase A₂ inhibition, spectrophotometric assay with Thio Pc Substrate (modified Hendrickson et al. procedure). It is filed as biochemical. To be noted: for IC50: concentration of inhibitor which reduces enzymatic activity by 50̸%, printed in the column % PLA₂ Inhibition; for inhibition at 100 µM: @ 1.0̸ x 10̸⁻⁴M, read-out: % PLA₂ Inhibition.

Description: The substrate employed in the modified assay, was 1,2-bis(decanoylthio)-1,2-­dideoxyglycerol-3-phosphocholine (hereinafter "Thio Pc Substrate"). The enzyme utilized in the procedure was phospholipase A₂ isolated from rat perotoneum as follows:
Male Wistar rats weighing 200-300 g a piece were injected interperitoneally at a dosage of 50 ml/kg of body weight (20 g of casein as the sodium salt diluted to 500 ml in distilled water). After a period of 18-24 hours the animals were sacrificed. Thereafter, each animal was injected interperitoneally with 30 ml of an isotonic salt solution to which sodium heparin was added prior to use at a concentration of 5 units/ml. Enzyme-containing exudate was aspirated through an abdominal incision. Separation of the enzyme from the exudate was accomplished by centrifugation.
Pursuant to the assay procedure, Thio Pc Substrate was apportioned into 1.25 mg aliquots. To each aliquot was added 4 ml of 160 mM tris hydrogen chloride buffer (pH 7.5) containing 2mM of calcium chloride and 2mM of sodium taurocholate. The resulting dispersions were vortexed at room temperature to clear solutions. Inhibition activity of the alkylphospholipids of this invention was determined utilizing spectrophotometric samples prepared by the addition of 5 µl of 4,4′-dithiopyridine and 395 ml of buffered Thio Pc substrate to a perincubated dispersion of 50 µl of alkylphospholipid (appropriately diluted in buffer) in 50 µl of enzyme (appropriately diluted in buffer). Absorbence at (0.5 full scale ) was recorded at a chart speed of 2 cm/min on a Gilford Model 250 Spectrophotometer.
The percentage of phospholipase A₂ inhibition was calculated by means of the following formula: [formula] wherein "inhibitor slope" is the slope of the spectrophotometric curve obtained for a given alkylphospholipid-containing sample and 'control slope" is the slope of the spectrophotometric curve obtained for an otherwise identical sample lacking an inhibitor.

For the compound `CCCCCCCCCCCCCCCCC(O)CCCOP(=O)([O-])OCC[N+](C)(C)C` (centres unmarked) [4,9-Dihydroxy-N,N,N-trimethyl-3,5-dioxa-4-phosphopentacosan-1-aminium, 4-oxide, hydroxide, inner salt monohydrate], the IC50 (usually the concentration needed to halve the response being measured) is 95 µM.

Take `CCCCCCCCCCCCCCCC(CCCOP(=O)([O-])OCC[N+](C)(C)C)OCc1ccccc1` (centres unmarked) [4-Hydroxy-N,N,N-trimethyl-9-phenylmethoxy-3,5-dioxa-4-phosphatetracosan-1-aminium, 4-oxide, hydroxide, inner salt monohydrate]: the inhibition (in general, how much of the control response was suppressed) at 100 µM was determined as 41.8%.

Consider `CCCCCCCCCCCCCCCCCC(CCCOP(=O)([O-])OCC[N+](C)(C)C)OCc1ccccc1` (centres unmarked) [4-Hydroxy-N,N,N-trimethyl-9-phenylmethoxy-3,5-dioxa-4-phosphahexacosan-1-aminium, 4-oxide, hydroxide, inner salt monohydrate], for which the IC50 was determined as 84 µM.

As to `CCCCCCCCCCCCCCCC(O)CCCOP(=O)([O-])OCC[N+](C)(C)C` (centres unmarked) [4,9-Dihydroxy-N,N,N-trimethyl-3,5-dioxa-4-phosphatetracosan-1-aminium, hydroxide, inner salt sesquihydrate], the inhibition at 100 µM was 45.6%.

In turn, `CCN(CC)CCCC(C)Nc1c2ccc(Cl)cc2nc2ccc(OC)cc12` (centres unmarked) [Quinacrine, reference compound] gave a half-inhibitory concentration (IC50) of 31 µM.

The values above are taken from patent EP0300397A2, “Hydroxy-, Alkoxy- and Benzyloxy substituted phospholipids, a process for their preparation and their use as medicaments” (HOECHST-ROUSSEL PHARMACEUTICALS INCORPORATED, priority 1987, dated 1989).
